Holding throughout (type): functional
Holding throughout (conditions): time 18-20 hrs

Assay [1] concerns Pseudomonas aeruginosa. In words: Antibacterial activity against IMP-4 producing multidrug-resistant Pseudomonas aeruginosa clinical isolate 15-4 assessed as inhibition of bacterial growth incubated for 18 to 20 hrs by two fold serial dilution assay.
The subject of assay [2] is Escherichia coli. Briefly: Antibacterial activity against ESBL-producing multidrug-resistant Escherichia coli clinical isolate 14-2 assessed as inhibition of bacterial growth incubated for 18 to 20 hrs by two fold serial dilution assay.
Assay [3] deals with Acinetobacter baumannii. Briefly: Antibacterial activity against OXA-23 producing multidrug-resistant Acinetobacter baumannii clinical isolate 15-5 assessed as inhibition of bacterial growth incubated for 18 to 20 hrs by two fold serial dilution assay.
Assay [4] relates to Acinetobacter baumannii. Briefly: Antibacterial activity against OXA-23 producing multidrug-resistant Acinetobacter baumannii clinical isolate 15-3 assessed as inhibition of bacterial growth incubated for 18 to 20 hrs by two fold serial dilution assay.
In assay [5] the test system is Acinetobacter baumannii. In words: Antibacterial activity against OXA-23 producing multidrug-resistant Acinetobacter baumannii clinical isolate 15-4 assessed as inhibition of bacterial growth incubated for 18 to 20 hrs by two fold serial dilution assay.
The subject of assay [6] is Klebsiella pneumoniae. Briefly: Antibacterial activity against KPC-2 producing multidrug-resistant Klebsiella pneumoniae clinical isolate 15-2 assessed as inhibition of bacterial growth incubated for 18 to 20 hrs by two fold serial dilution assay.
The test system of assay [7] is Pseudomonas aeruginosa. Briefly: Antibacterial activity against IMP-4 producing multidrug-resistant Pseudomonas aeruginosa clinical isolate 15-1 assessed as inhibition of bacterial growth incubated for 18 to 20 hrs by two fold serial dilution assay.
The subject of assay [8] is Escherichia coli. Briefly: Antibacterial activity against ESBL-producing multidrug-resistant Escherichia coli clinical isolate 14-1 assessed as inhibition of bacterial growth incubated for 18 to 20 hrs by two fold serial dilution assay.
For assay [9], the system named is Acinetobacter baumannii. In words: Antibacterial activity against OXA-23 producing multidrug-resistant Acinetobacter baumannii clinical isolate 15-1 assessed as inhibition of bacterial growth incubated for 18 to 20 hrs by two fold serial dilution assay.
The subject of assay [10] is Escherichia coli. Briefly: Antibacterial activity against ESBL-producing multidrug-resistant Escherichia coli clinical isolate 14-4 assessed as inhibition of bacterial growth incubated for 18 to 20 hrs by two fold serial dilution assay.
Assay [11] relates to Pseudomonas aeruginosa. Briefly: Antibacterial activity against IMP-4 producing multidrug-resistant Pseudomonas aeruginosa clinical isolate 15-5 assessed as inhibition of bacterial growth incubated for 18 to 20 hrs by two fold serial dilution assay.
Assay [12] deals with Klebsiella pneumoniae. In words: Antibacterial activity against KPC-2 producing multidrug-resistant Klebsiella pneumoniae clinical isolate 15-1 assessed as inhibition of bacterial growth incubated for 18 to 20 hrs by two fold serial dilution assay.
Assay [13] concerns Acinetobacter baumannii. Briefly: Antibacterial activity against OXA-23 producing multidrug-resistant Acinetobacter baumannii clinical isolate 15-2 assessed as inhibition of bacterial growth incubated for 18 to 20 hrs by two fold serial dilution assay.
For assay [14], the system named is Klebsiella pneumoniae. Briefly: Antibacterial activity against KPC-2 producing multidrug-resistant Klebsiella pneumoniae clinical isolate 15-5 assessed as inhibition of bacterial growth incubated for 18 to 20 hrs by two fold serial dilution assay.
Assay [15] concerns Klebsiella pneumoniae. In words: Antibacterial activity against KPC-2 producing multidrug-resistant Klebsiella pneumoniae clinical isolate 15-3 assessed as inhibition of bacterial growth incubated for 18 to 20 hrs by two fold serial dilution assay.
The test system of assay [16] is Pseudomonas aeruginosa. Briefly: Antibacterial activity against Pseudomonas aeruginosa ATCC 27853 assessed as inhibition of bacterial growth incubated for 18 to 20 hrs by two fold serial dilution assay.

By MIC is commonly meant the lowest concentration that inhibits growth of the organism.

Take `CC(C)(C)C(O/N=C(\C(=O)N[C@@H]1C(=O)N2C(C(=O)O)=C(CSCCNC(=O)c3ccc(O)c(O)c3Cl)CS[C@H]12)c1csc(N)n1)C(=O)O.O=C(O)C(F)(F)F` (some centres undefined): the MIC turned out to be 8 µg/mL in assay [1]; 1 µg/mL in [2]; 2 µg/mL in [3]; 2 µg/mL in assay [4]; 1 µg/mL in assay [5]; 1 µg/mL in [6]. The MIC in [7] stood at 4 µg/mL; in assay [8], 0.06 µg/mL; in assay [9] it was 2 µg/mL; in assay [10] it was 2 µg/mL; in assay [11], 4 µg/mL; in [12] it was 0.25 µg/mL. In addition, the MIC was determined as 1 µg/mL in assay [13], 0.5 µg/mL in assay [14], 16 µg/mL in [15] and 4 µg/mL in [16].

Consider `CC(C)(O/N=C(\C(=O)N[C@@H]1C(=O)N2C(C(=O)O)=C(CSCCOCCNC(=O)c3ccc(O)c(O)c3Cl)CS[C@H]12)c1csc(N)n1)C(=O)O.O=C(O)C(F)(F)F`, for which the MIC turned out to be 1 µg/mL in assay [1]; 2 µg/mL in assay [2]; 32 µg/mL in assay [3]; 32 µg/mL in [4]; 64 µg/mL in assay [5]; 4 µg/mL in assay [6]. The MIC in assay [7] came out at 1 µg/mL; in assay [8] it was 0.25 µg/mL; in assay [9] it was 32 µg/mL; in assay [10], 32 µg/mL; in assay [11], 2 µg/mL; in assay [12], 8 µg/mL. For the same molecule, the MIC is 32 µg/mL in assay [13], 4 µg/mL in assay [14], 8 µg/mL in assay [15] and 4 µg/mL in [16].

For `CC(C)(O/N=C(\C(=O)N[C@@H]1C(=O)N2C(C(=O)O)=C(CS[C@@H]3C[C@H]4CC[C@@H](C3)N4C(=O)c3ccc(O)c(O)c3Cl)CS[C@H]12)c1csc(N)n1)C(=O)O.O=C(O)C(F)(F)F`, the MIC in assay [1] is 16 µg/mL; in [2], 16 µg/mL; in assay [3], over 64 µg/mL; in assay [4], 64 µg/mL; in [5], over 64 µg/mL; in assay [6], 1 µg/mL. Further, the minimum inhibitory concentration (MIC) in assay [7] was determined as 16 µg/mL; in assay [8], 0.25 µg/mL; in assay [9] it was 64 µg/mL; in [10] it was 16 µg/mL; in [11], 16 µg/mL; in assay [12], 2 µg/mL. In addition, the MIC was determined as 64 µg/mL in assay [13], 1 µg/mL in [14], 64 µg/mL in assay [15] and 2 µg/mL in assay [16].

Consider `Nc1nc(/C(=N/OC2(C(=O)O)CCC2)C(=O)N[C@@H]2C(=O)N3C(C(=O)O)=C(CSCCNC(=O)c4ccc(O)c(O)c4Cl)CS[C@H]23)cs1.O=C(O)C(F)(F)F`, for which the MIC turned out to be 1 µg/mL in assay [1]; 2 µg/mL in [2]; 32 µg/mL in [3]; 32 µg/mL in [4]; 32 µg/mL in [5]; 4 µg/mL in assay [6]. Also, the minimal inhibitory concentration (MIC) in assay [7] was 1 µg/mL; in assay [8], 0.25 µg/mL; in assay [9] it was 32 µg/mL; in assay [10], 32 µg/mL; in [11] it was 2 µg/mL; in [12] it was 2 µg/mL. Besides, the minimal inhibitory concentration (MIC) in assay [13] turned out to be 32 µg/mL; in [14], 4 µg/mL; in [15], 8 µg/mL; in [16], 2 µg/mL.

As to `CC(C)C(O/N=C(\C(=O)N[C@@H]1C(=O)N2C(C(=O)O)=C(CS[C@H]3CC[C@@H](NC(=O)c4ccc(O)c(O)c4Cl)CC3)CS[C@H]12)c1csc(N)n1)C(=O)O.O=C(O)C(F)(F)F` (some centres undefined), the minimal inhibitory concentration (MIC) turned out to be 2 µg/mL in [1]; 2 µg/mL in [2]; 16 µg/mL in assay [3]; 32 µg/mL in [4]; 16 µg/mL in assay [5]; 2 µg/mL in assay [6]. Besides, the minimum inhibitory concentration (MIC) in [7] turned out to be 8 µg/mL; in assay [8], 0.125 µg/mL; in assay [9], 32 µg/mL; in assay [10] it was 16 µg/mL; in assay [11] it was 8 µg/mL; in assay [12], 2 µg/mL. Also, the MIC turned out to be 16 µg/mL in assay [13], 2 µg/mL in [14], 4 µg/mL in assay [15] and 2 µg/mL in [16].

Consider `CC(C)(O/N=C(\C(=O)N[C@@H]1C(=O)N2C(C(=O)O)=C(CS[C@H]3CC[C@@H](NC(=O)c4ccc(O)c(O)c4Cl)CC3)CS[C@H]12)c1csc(N)n1)C(=O)O.O=C(O)C(F)(F)F`, for which the MIC in [1] was found to be 1 µg/mL; in assay [2], 4 µg/mL; in [3], 32 µg/mL; in [4], 32 µg/mL; in assay [5], 32 µg/mL; in [6] it was 4 µg/mL. The minimal inhibitory concentration (MIC) stood at 1 µg/mL in assay [7]; 0.125 µg/mL in assay [8]; 32 µg/mL in assay [9]; 1 µg/mL in assay [10]; 2 µg/mL in assay [11]; 4 µg/mL in assay [12]. In addition, the minimum inhibitory concentration (MIC) in assay [13] was 32 µg/mL; in assay [14], 8 µg/mL; in assay [15], 4 µg/mL; in assay [16], 8 µg/mL.

On to `Nc1nc(/C(=N/OC2(C(=O)O)CC2)C(=O)N[C@@H]2C(=O)N3C(C(=O)O)=C(CSCCNC(=O)c4ccc(O)c(O)c4Cl)CS[C@H]23)cs1.O=C(O)C(F)(F)F`, for which the MIC in [1] is 1 µg/mL; in assay [2] it was 2 µg/mL; in assay [3], 64 µg/mL; in [4] it was 32 µg/mL; in assay [5], 64 µg/mL; in assay [6], 32 µg/mL. In addition, the minimum inhibitory concentration (MIC) in assay [7] amounted to 1 µg/mL; in assay [8] it was 0.5 µg/mL; in assay [9] it was 64 µg/mL; in assay [10] it was 64 µg/mL; in [11], 4 µg/mL; in [12] it was 16 µg/mL. The minimal inhibitory concentration (MIC) in assay [13] is 64 µg/mL; in assay [14] it was 32 µg/mL; in [15] it was over 64 µg/mL; in assay [16], 4 µg/mL.

On to `CC(C)C(O/N=C(\C(=O)N[C@@H]1C(=O)N2C(C(=O)O)=C(CSCCNC(=O)c3ccc(O)c(O)c3Cl)CS[C@H]12)c1csc(N)n1)C(=O)O.O=C(O)C(F)(F)F` (some centres undefined), for which the MIC in assay [1] turned out to be 4 µg/mL; in assay [2], 2 µg/mL; in assay [3], 4 µg/mL; in [4], 4 µg/mL; in assay [5], 4 µg/mL; in [6], 0.5 µg/mL. The minimal inhibitory concentration (MIC) in [7] came out at 2 µg/mL; in assay [8], 0.06 µg/mL; in assay [9], 8 µg/mL; in [10], 0.5 µg/mL; in assay [11] it was 4 µg/mL; in assay [12], 0.5 µg/mL. The MIC in [13] stood at 4 µg/mL; in assay [14] it was 0.25 µg/mL; in assay [15], 0.5 µg/mL; in assay [16], 8 µg/mL.

For `CC(C)(C)C(O/N=C(\C(=O)N[C@@H]1C(=O)N2C(C(=O)O)=C(CS[C@H]3CC[C@@H](NC(=O)c4ccc(O)c(O)c4Cl)CC3)CS[C@H]12)c1csc(N)n1)C(=O)O.O=C(O)C(F)(F)F` (some centres undefined), the MIC was determined as 16 µg/mL in assay [1]; 4 µg/mL in assay [2]; 8 µg/mL in [3]; 8 µg/mL in [4]; 4 µg/mL in [5]; 16 µg/mL in [6]. For the same molecule, the MIC in assay [7] worked out at 8 µg/mL; in [8], 0.5 µg/mL; in [9] it was 8 µg/mL; in [10], 4 µg/mL; in [11], 8 µg/mL; in assay [12] it was 4 µg/mL. In addition, the minimum inhibitory concentration (MIC) in [13] turned out to be 4 µg/mL; in assay [14] it was 1 µg/mL; in [15], 32 µg/mL; in assay [16], 8 µg/mL.

The values are drawn from ChEMBL document CHEMBL5543142, “Discovery of YFJ-36: Design, Synthesis, and Antibacterial Activities of Catechol-Conjugated β-Lactams against Gram-Negative Bacteria” (J Med Chem, 2024).
